Reference: ChEMBL document CHEMBL1130030, “Tyrosine kinase inhibitors. 11. Soluble analogues of pyrrolo- and pyrazoloquinazolines as epidermal growth factor receptor inhibitors: synthesis, biological evaluation, and modeling of the mode of binding” (J Med Chem, 1997)

Tests used:
[1] = target: T1, Epidermal growth factor receptor (Homo sapiens, UniProt P00533); assay: Inhibition of autophosphorylation of epidermal growth factor receptor prepared from human A431 carcinoma cells.
[2] = target: T1, Epidermal growth factor receptor; assay: Inhibition of the phosphorylation of a random polyglutamic acid/tyrosine copolymer by human epidermal growth factor receptor(EGFR) prepared from human A431 carcinoma cells

T1 sequence (P00533 whole entry): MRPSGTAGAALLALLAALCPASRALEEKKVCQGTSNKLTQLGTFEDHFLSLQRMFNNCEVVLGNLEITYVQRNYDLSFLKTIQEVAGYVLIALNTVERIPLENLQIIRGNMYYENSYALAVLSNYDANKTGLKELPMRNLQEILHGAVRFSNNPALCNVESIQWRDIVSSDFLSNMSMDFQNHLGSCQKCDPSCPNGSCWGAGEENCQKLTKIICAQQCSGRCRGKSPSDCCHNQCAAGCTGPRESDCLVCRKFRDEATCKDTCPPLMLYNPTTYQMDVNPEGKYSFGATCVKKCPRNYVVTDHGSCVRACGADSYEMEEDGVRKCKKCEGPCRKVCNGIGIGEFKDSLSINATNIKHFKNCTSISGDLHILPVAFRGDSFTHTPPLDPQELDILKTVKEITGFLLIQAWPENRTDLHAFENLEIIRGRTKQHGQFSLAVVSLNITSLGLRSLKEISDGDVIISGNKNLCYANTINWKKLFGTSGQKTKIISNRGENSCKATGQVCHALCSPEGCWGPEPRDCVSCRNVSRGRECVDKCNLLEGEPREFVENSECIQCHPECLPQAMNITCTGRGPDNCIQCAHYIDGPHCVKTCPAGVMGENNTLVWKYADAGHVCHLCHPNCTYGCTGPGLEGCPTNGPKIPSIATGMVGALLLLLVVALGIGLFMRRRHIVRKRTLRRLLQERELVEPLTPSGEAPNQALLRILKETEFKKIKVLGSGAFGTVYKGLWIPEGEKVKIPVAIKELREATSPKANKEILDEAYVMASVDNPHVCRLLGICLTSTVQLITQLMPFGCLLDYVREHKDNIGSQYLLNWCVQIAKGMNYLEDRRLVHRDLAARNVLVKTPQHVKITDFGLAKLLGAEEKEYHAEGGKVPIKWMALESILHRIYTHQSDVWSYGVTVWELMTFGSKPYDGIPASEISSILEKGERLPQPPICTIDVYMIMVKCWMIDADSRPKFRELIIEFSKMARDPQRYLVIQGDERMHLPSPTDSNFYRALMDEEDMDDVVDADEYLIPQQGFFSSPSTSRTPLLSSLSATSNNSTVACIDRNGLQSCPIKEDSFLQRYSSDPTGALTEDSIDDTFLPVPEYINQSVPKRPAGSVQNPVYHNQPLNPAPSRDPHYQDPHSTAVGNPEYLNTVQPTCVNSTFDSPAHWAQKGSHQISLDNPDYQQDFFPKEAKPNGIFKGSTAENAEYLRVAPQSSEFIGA

| SMILES | IC50 [1] [nM] | IC50 [2] [nM] |
| --- | --- | --- |
| Brc1cccc(Nc2ncnc3cc4[nH]ccc4cc23)c1 | 22 | – |
| Brc1cccc(Nc2ncnc3cc4c(cnn4CCCN4CCOCC4)cc23)c1 | 77 | 8.8 |
| Brc1cccc(Nc2nccc3ccccc23)c1 | – | > 100000 |
| O=C(O)Cn1ccc2cc3c(Nc4cccc(Br)c4)ncnc3cc21 | 1780 | 5.1 |
| CN(C)CCCn1ccc2cc3c(Nc4cccc(Br)c4)ncnc3cc21 | 230 | 21 |
| OCC(O)Cn1ncc2cc3c(Nc4cccc(Br)c4)ncnc3cc21 (configuration not stated) | 318 | 12 |
| CN(C)CCn1ccc2cc3c(Nc4cccc(Br)c4)ncnc3cc21 | 145 | 41 |
| Cc1nc(Nc2cccc(Br)c2)c2ccccc2n1 | – | > 10000 |
| CN(C)Cc1c[nH]c2cc3ncnc(Nc4cccc(Br)c4)c3cc12 | 9.7 | 2.6 |
| Cn1ncc2cc3c(Nc4cccc(Br)c4)ncnc3cc21 | 13 | 0.37 |
| COC(=O)CN(C)Cc1c[nH]c2cc3ncnc(Nc4cccc(Br)c4)c3cc12 | 9.6 | 3.4 |
| Brc1cccc(Nc2ncnc3cc4[nH]cc(CN5CCOCC5)c4cc23)c1 | 9.6 | 4.8 |
| OCCN(CCO)Cc1c[nH]c2cc3ncnc(Nc4cccc(Br)c4)c3cc12 | 135 | 3.5 |

Continued, values first:

| IC50 [1] [nM] | IC50 [2] [nM] | SMILES |
| --- | --- | --- |
| 49 | 1.6 | OCC(O)Cn1ccc2cc3c(Nc4cccc(Br)c4)ncnc3cc21 (configuration not stated) |
| – | > 10000 | COc1cccc2c(Nc3cccc(Br)c3)ncnc12 |
| 81 | 7.5 | CN(C)CCN(C)Cc1c[nH]c2cc3ncnc(Nc4cccc(Br)c4)c3cc12 |
| 262 | 40 | CN(C)CCn1ncc2cc3c(Nc4cccc(Br)c4)ncnc3cc21 |
| 22 | 0.8 | Cn1ccc2cc3c(Nc4cccc(Br)c4)ncnc3cc21 |
| 584 | 0.72 | CN(CC(=O)O)Cc1c[nH]c2cc3ncnc(Nc4cccc(Br)c4)c3cc12 |
| 16 | 3.7 | Brc1cccc(Nc2ncnc3cc4c(ccn4CCN4CCOCC4)cc23)c1 |
| 20 | – | Brc1cccc(Nc2ncnc3cc4[nH]ncc4cc23)c1 |
